Molecules are shown by their SMILES.

The text below walks through data of patent US5817679A, “7-Azabicyclo[2.2.1]-heptane and -heptene derivatives as cholinergic receptor ligands” (priority 1994, dated 1998).

In experiment [1] the target is T1, nicotinic cholinergic receptor (Rattus norvegicus, UniProt P09483+P12390).
T1 construct: A membrane fraction from rat brain cortex; tissue Harlan Laboratories; host or cells: rat brain cortex membranes
Description: Competition with [3H](-)-cytisine for binding to rat cortex (brain) receptors (Tables 7, 8). The conditions noted are these: Table 8, [3H](-)-cytisine, rat brain cortex membranes; read-out: Nicotine Receptor IC50. The source says: Competition with Cytisine for Binding to Rat Cortex (Brain) Receptors
[^3 H](-)-Cytisine is a nicotinic cholinergic receptor ligand that binds with high affinity to the a4b2 subtype receptor, the major subtype in rodent brain accounting for >90% of (-)-nicotine binding sites (Flores, et al., 1992; Whiting, et al., 1992). This nicotinic receptor subtype is most sensitive to (-)-nicotine compared to other receptor subtypes (Connolly, et al., 1992). Compounds that compete with cytisine for the nicotinic cholineric receptor are considered nicotine receptor agonists.
A membrane fraction from rat brain cortex (Harlan Laboratories) was prepared using an adaptation of an established method (Pabreza, et al., 1991). Compound and [^3 H]-(-)-cytisine (New England Nuclear, 42 Ci/mmol) were mixed before addition of membrane (0.5 mg protein) and incubated in glass tubes for 75 minutes on ice; total assay volume was 0.24 ml. Parallel assays to determine nonspecific binding were incubated in the presence of 10 uM (-)-nicotine (Sigma). Bound radioactivity was isolated by vacuum filtration onto glass microfiber filters (Whatman, GF-B) using millipore tubs, followed by 3×4 ml buffer wash. Filters were prerinsed with 0.5% polyethyleneimine prior to sample filtration to reduce nonspecific binding. Bound radioactivity was quantitated by scintillation counting.

Experiment [2] addresses T2, acetylcholine nicotinic receptor (Rattus norvegicus, UniProt P09483+P12390).
T2 construct: rat cortex as the tissue substrate; from tissue; host or cells: rat cortex
Description: Nicotinic receptor binding, [3H]-NMCI radioligand, rat cortex (Table 6). Here is the method:
Evaluation of Nicotinic Receptor Binding Activity
7-Aza-bicyclo[2.2.1]-heptanes and -heptenes were evaluated for their ability to bind to the acetylcholine nicotinic receptor using a standard binding assay, e.g. X. Zhang and A. Nordberg, Arch. Pharmacol., 348, 28 (1993); R. E. Middleton and J. B. Cohen, Biochemistry, 30, 6987 (1991), with nicotine sulfate as the reference compound, rat cortex as the tissue substrate, and a [^3 H]-NMCI radioligand.

Experiment [3] can be described thus: Analgesic activity, Straub-Tail assay (Table 5). Type of experiment: in vivo.
Experiment [4] can be described thus: Analgesic activity, Straub-Tail assay (Table 5). In kind it is in vivo. The conditions noted are these: for ED50: Straub-Tail assay. The source says:
A wide variety of biological assays have been used to evaluate the ability of a compound to act as an analgesic. Any of these known assays can be used to evaluate the analgesic ability of the compounds disclosed herein. The Straub-tail reaction, which is characteristic of opiate alkaloids, has been used as an assay for opiate agonists and antagonists. The assay is described in detail in Br. J. of Pharmacol. 1969, 36, 225. Another accepted assay for analgesic activity is the hot plate analgesia assay, described in J. of Pharmacol. Exp. Therap. 1953, 107, 385. An assay for the evaluation of the ability of a compound to bind to an opiate receptor is described in Mol. Pharmacol. 1974, 10, 868.
Evaluation of Analgesic Activity
Table 5 provides the analgesic activity measured as ED50 (μg/Kg) for selected compounds disclosed herein, as determined using the Straub-Tail assay, as describe by J. Daly et al. J. Am. […] Chem. Soc. 1992, 114, 3475; T. Li, et al. Bioorganic and Medicinal Chemistry Letters 1993, 3, 2759.

The test system of experiment [5] is opiate receptors. The conditions noted are these: in words; cited from earlier work.
The conditions of experiment [6]: opiate antagonist naloxone; cited from earlier work.
For experiment [7], the system named is nicotinic cholinergic receptor. The note with it: in words; cited from earlier work.
Experiment [8] relates to a4b2 subtype receptor. The conditions noted are these: in words; cited from earlier work.
Experiment [9] can be described thus: Tail-flick assay in mice and rats (antinociception). Type of experiment: in vivo. The note with it: for Tail-Flick Assay ED50 % Effect After 5 min. / Tail-Flick Assay ED50 % Effect After 60 min.: (mg/kg). Here is the method: Tail-Flick Assay in Mice and Rats
Female CD-1 mice (20-25 g, Charles River Labs) and male CD rats (300-400 g, Charles River Labs) were housed in groups of two and five, respectively. Animals were given food and water ad libitum. Most studies were performed using groups of 5 animals per treatment unless otherwise noted.
Antinociceptive effects (i.e., analgesia) of test compounds in mice and rats were measured by the tail-flick test using a tail-flick analgesia meter (EMDIE Instrument Co.). A maximum latency of 10 sec was imposed if no response occurred within that time. Antinociceptive activity, measured as % MPE, was calculated as [(test-control)/(10-control)×100)].
Duration of compound and (-)-nicotine-induced antinociception was assessed in mice by measuring antinociception at 2, 5, 10, 20 min after compound (20 μg/kg, s.c.) or nicotine (5 mg/kg, s.c.).
Mice (7/group) or rats were pretreated i.v. (0.9% saline or antagonist, mecamylamine, hexamethonium, atropine, naloxone or yohimbine) 10 minutes before administration of compound or nicotine at different doses. A control response (1.5-4 sec) was determined for each animal before treatment and test latencies were assessed at 5 minutes after compound administration (5 ml/kg, s.c.) or 2 min after nicotine (5 ml/kg, s.c.).

Setting [10] is: Straub-Tail assay, read-out: ED50.

Take `Cc1cc(C2CC3CCC2N3)on1` (stereo not shown): the half-inhibitory concentration (IC50) in [1] is 630 nM.

For the compound `N=CN1C2CCC1C(c1ccc(Cl)nc1)C2` (stereo not shown), the Inhibition % in [2] (testing level 10^-7 M) was determined as 104%.

Regarding `COc1ccc([C@H]2C[C@@H]3CC[C@H]2N3)cn1` (relative stereo), the 50% effective dose (ED50) in experiment [3] (setting [10]) turned out to be 0.75 mg/kg.

On to `C[N+]1(C)C2CCC1C(c1ccc(Cl)nc1)C2` (stereo not shown), for which the Inhibition % came out at 104% in experiment [2] (testing level 10^-5 M) and 100% in [2] (testing level 10^-7 M).

Regarding `CN1C2CCC1C(c1ccc3ccccc3n1)C2` (stereo not shown), in experiment [1], the IC50 was determined as 77 nM.

In the case of `Clc1ccc([C@@H]2C[C@H]3CC[C@@H]2N3)cn1` [d-epibatidine], in [4], the ED50 was above 0.1 mg/kg.

In [3], `ClCCN1[C@H]2CC[C@@H]1[C@@H](c1ccc(Cl)nc1)C2` (relative stereo) yielded an ED50 of around 0.1 mg/kg.

On to `Clc1ccc([C@H]2C[C@@H]3CC[C@H]2N3)cn1` (relative stereo) [epibatidine, exo-2-(2-chloro-5-pyridyl)-7-azabicyclo[2.2.1]heptane], for which the “affinity for opiate receptors” value in experiment [5] is “negligible affinity”. The “effect of naloxone on Straub-tail response” value in experiment [6] is recorded as “not reversed by the opiate antagonist naloxone”. Moreover, the “nicotinic cholinergic receptor activity” value in [7] is listed as “nicotinic cholinergic receptor agonist”.

`Cc1cc(C2CC3CCC2N3C)on1` (stereo not shown): the IC50 in [1] amounted to 24 nM.

`c1cncc(C2CC3CCC2N3)c1` (stereo not shown) [drawing 55]: the Inhibition % in [2] (testing level 10^-5 M) was found to be 104%; in experiment [2] (testing level 10^-9 M), 103%.

Regarding `c1cncc([C@H]2C[C@@H]3CC[C@H]2N3)c1` (relative stereo), the median effective dose (ED50) in experiment [3] (setting [10]) is 0.25 mg/kg.

Consider `c1ccc2nc(C3CC4CCC3N4)ccc2c1` (stereo not shown), for which the IC50 in experiment [1] amounted to 7 nM.

As for `Clc1ccc([C@H]2C[C@@H]3CC[C@H]2N3CC2CC2)cn1` (relative stereo), the “effect in Straub-Tail assay” value in experiment [4] (@ 1000 μg/Kg) came to 100%.

As for `Clc1ccc([C@H]2C[C@@H]3C=C[C@H]2N3)cn1` (relative stereo), in experiment [3] (setting [10]), the median effective dose (ED50) was below 1 mg/kg.

Take `O=c1cccc2n1C[C@@H]1CNC[C@H]2C1` [[^3 H](-)-Cytisine]: in experiment [8], the “affinity for a4b2 subtype receptor” value was “high affinity”.

As for `C[N+]1(C)[C@H]2CC[C@@H]1[C@@H](c1ccc(Cl)nc1)C2` (relative stereo), the median effective dose (ED50) in experiment [3] (setting [10]) lay within 0.1 to 0.2 mg/kg.

Turning to `c1cncc(C2CC3CCC2N3)c1` (stereo not shown) [drawing 40], in experiment [3] (setting [10]), the ED50 amounted to 10 mg/kg.

Turning to `N=CN1[C@H]2CC[C@@H]1[C@@H](c1ccc(Cl)nc1)C2` (relative stereo), the “effect in Straub-Tail assay” value in experiment [4] (@ 100 (μg/Kg per column head)) came out at 99%.

On to `N=CN1C2CCC1C(c1cccnc1)C2` (stereo not shown), for which the Inhibition % in [2] (testing level 10^-7 M) is 103.9%; in experiment [2] (testing level 10^-8 M), 71.3%.

`Cc1nnc(C2CC3CCC2N3C)o1` (stereo not shown) [drawing 61]: in experiment [9], the “Tail-Flick Assay ED50 % Effect After 5 min.” value is listed as 6.7% and the “Tail-Flick Assay ED50 % Effect After 60 min.” value was found to be 24.6%.

Regarding `CC(C)(C)Oc1ccc([C@H]2C[C@@H]3CC[C@H]2N3)cn1` (relative stereo), in experiment [3] (setting [10]), the median effective dose (ED50) was around 1 mg/kg.

Turning to `Cc1noc(C2CC3CCC2N3C)n1` (stereo not shown), the 50% effect level in experiment [9] (Mus musculus, sc, Table 8) (ED50) was put at a dose of 0.23 mg/kg.

In the case of `Fc1ccc([C@H]2C[C@@H]3CC[C@H]2N3)cn1` (relative stereo), the median effective dose (ED50) in experiment [3] (setting [10]) was around 0.05 mg/kg.

With `Clc1ccc([C@H]2C[C@@H]3CC[C@H]2N3CCc2ccccc2)cn1` (relative stereo), the ED50 in experiment [3] (setting [10]) is below 1 mg/kg.

Turning to `Cc1nnc(C2CC3CCC2N3C)o1` (stereo not shown) [drawing 60], in experiment [9], the “Tail-Flick Assay ED50 % Effect After 5 min.” value was -2.9% and the “Tail-Flick Assay ED50 % Effect After 60 min.” value is recorded as -3.6%.

The compound `Clc1ccc([C@H]2C[C@@H]3CC[C@H]2N3)cn1` (relative stereo) [drawing 50] had an ED50 in experiment [4] of 0.01 mg/kg.

In the case of `CN1[C@H]2CC[C@@H]1[C@@H](c1ccc(Cl)nc1)C2` (relative stereo), in experiment [3] (setting [10]), the median effective dose (ED50) is below 0.01 mg/kg.

The term IC50 denotes the concentration that inhibits the measured activity by half. The term ED50 denotes the dose that gives a 50% effect, or the effect in half of the subjects.
